# According to patent publication US20170037028A1 (BAYER PHARMA AKTIENGESELLSCHAFT, priority 2013, published 2017):
# pIC50: −log10 of the molar value.
# Biological target: T1, GLUT1 (Homo sapiens, UniProt P11166)
# T1 sequence (P11166 1-492): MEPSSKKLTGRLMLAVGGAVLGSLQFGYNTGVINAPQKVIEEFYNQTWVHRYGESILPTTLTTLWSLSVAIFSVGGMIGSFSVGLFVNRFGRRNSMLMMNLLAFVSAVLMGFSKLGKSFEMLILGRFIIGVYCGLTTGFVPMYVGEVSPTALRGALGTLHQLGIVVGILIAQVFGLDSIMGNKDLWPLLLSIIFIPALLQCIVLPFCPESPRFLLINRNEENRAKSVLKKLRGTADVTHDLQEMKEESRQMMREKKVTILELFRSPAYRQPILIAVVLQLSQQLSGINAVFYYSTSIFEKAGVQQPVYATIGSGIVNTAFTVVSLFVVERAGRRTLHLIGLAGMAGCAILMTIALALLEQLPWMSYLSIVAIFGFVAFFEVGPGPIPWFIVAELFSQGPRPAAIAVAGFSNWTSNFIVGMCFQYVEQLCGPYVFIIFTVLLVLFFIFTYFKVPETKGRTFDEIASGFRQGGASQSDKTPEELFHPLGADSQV
# Assay: Indirect measurement of GLUT1 activity by quantification of intracellular ATP levels (glucose induced ATP increase)
# Format: cell-based
# Set-up: endogenous in cells; host or cells: DLD1 or CHO-K1
# Conditions: DLD1 cells; 0.1 mM glucose, 1 μM Rotenone, 15 min; CellTiter-Glo ATP readout; IC50 values standardized to cytochalasin B IC50 values; read-out: IC50 regarding glucose induced ATP increase (GLUT1 inhibition)
# Summary of the method: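 Intracellular ATP was measured by CellTiter-Glo luminescence as an indirect readout of transport: glucose-driven for GLUT1, fructose-driven for GLUT2. DLD1 or CHO-K1 cells were used alongside an oxidative phosphorylation inhibitor. Beforehand, cells were held overnight in glucose-free 1% FCS medium to deplete ATP.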
row,SMILES,pIC50
1,"Cc1nn(Cc2ccc(F)cc2)c(C)c1NC(=O)c1cc(C(F)(F)F)nc2ccccc12 [Example 181, N-[1-(4-fluorobenzyl)-3,5-dimethyl-1H-pyrazol-4-yl]-2-(trifluoromethyl)quinoline-4-carboxamide]",7.03

# Same assay, conditions: read-out: IC50 regarding glucose induced ATP increase (GLUT1 inhibition)
row,pIC50,SMILES
1,7.26,"Cc1nn(CC2CCCCC2)c(C)c1NC(=O)c1cc(C(F)(F)F)nc2ccc(Br)cc12 [Example 170, 6-bromo-N-[1-(cyclohexylmethyl)-3,5-dimethyl-1H-pyrazol-4-yl]-2-(trifluoromethyl)quinoline-4-carboxamide]"
2,7.24,"Cc1nn(Cc2cccnc2)c(C)c1NC(=O)c1cc(C(F)(F)F)nc2ccc(Br)cc12 [Example 171, 6-bromo-N-[3,5-dimethyl-1-(pyridin-3-ylmethyl)-1H-pyrazol-4-yl]-2-(trifluoromethyl)quinoline-4-carboxamide]"
3,7.23,"CNC(=O)c1cc(C(=O)Nc2c(C)nn(Cc3ccc(F)cc3)c2C)c2ccccc2n1 [Example 172, N^4-[1-(4-fluorobenzyl)-3,5-dimethyl-1H-pyrazol-4-yl]-N^2-methylquinoline-2,4-dicarboxamide]"
4,7.19,"Cc1nn(Cc2ccc(F)c(F)c2)c(C)c1NC(=O)c1cc(C(F)(F)F)nc2cccc(F)c12 [Example 173, N-[1-(3,4-difluorobenzyl)-3,5-dimethyl-1H-pyrazol-4-yl]-5-fluoro-2-(trifluoromethyl)quinoline-4-carboxamide]"
5,7.16,"Cc1nn(Cc2ccc(F)c(F)c2)c(C)c1NC(=O)c1cc(C(F)(F)F)nc2ccc(F)cc12 [Example 174, N-[1-(3,4-difluorobenzyl)-3,5-dimethyl-1H-pyrazol-4-yl]-6-fluoro-2-(trifluoromethyl)quinoline-4-carboxamide]"
6,7.15,"Cc1nn(Cc2ccccc2C#N)c(C)c1NC(=O)c1cc(C(F)(F)F)nc2cc(F)c(F)cc12 [Example 175, N-[1-(2-cyanobenzyl)-3,5-dimethyl-1H-pyrazol-4-yl]-6,7-difluoro-2-(trifluoromethyl)quinoline-4-carboxamide]"
7,7.14,"CCN(C(=O)c1cc(C(F)(F)F)nc2ccc(Br)cc12)c1c(C)nn(Cc2ccc(F)cc2)c1C [Example 176, 6-bromo-N-ethyl-N-[1-(4-fluorobenzyl)-3,5-dimethyl-1H-pyrazol-4-yl]-2-(trifluoromethyl)quinoline-4-carboxamide]"
8,7.13,"Cc1nn(Cc2ccc(F)c(F)c2)c(C)c1NC(=O)c1cc(C(F)(F)F)nc2cc(F)c(F)cc12 [Example 177, N-[1-(3,4-difluorobenzyl)-3,5-dimethyl-1H-pyrazol-4-yl]-6,7-difluoro-2-(trifluoromethyl)quinoline-4-carboxamide]"
9,7.11,"CNC(=O)c1cc(C(=O)Nc2c(C(F)(F)F)nn(Cc3ccc(F)cc3)c2C)c2ccccc2n1 [Example 178, N^4-[1-(4-fluorobenzyl)-5-methyl-3-(trifluoromethyl)-1H-pyrazol-4-yl]-N2-methylquinoline-2,4-dicarboxamide]"
10,7.11,"Cc1c(NC(=O)c2cc(C(F)(F)F)nc3ccc(Br)cc23)c(C(F)(F)F)nn1Cc1ccc(F)cc1F [Example 179, 6-bromo-N-[1-(2,4-difluorobenzyl)-5-methyl-3-(trifluoromethyl)-1H-pyrazol-4-yl]-2-(trifluoromethyl)quinoline-4-carboxamide]"
11,7.03,"Cc1nn(Cc2ccc(Cl)s2)c(C)c1NC(=O)c1cc(C(F)(F)F)nc2ccc(Br)cc12 [Example 180, 6-bromo-N-{1-[(5-chlorothiophen-2-yl)methyl]-3,5-dimethyl-1H-pyrazol-4-yl}-2-(trifluoromethyl)quinoline-4-carboxamide]"
12,7.00,"Cc1c(NC(=O)c2cc(C(F)(F)F)nc3cc(F)c(F)cc23)c(C(F)(F)F)nn1Cc1ccc(C#N)cc1 [Example 182, N-[1-(4-cyanobenzyl)-5-methyl-3-(trifluoromethyl)-1H-pyrazol-4-yl]-6,7-difluoro-2-(trifluoromethyl)quinoline-4-carboxamide]"
13,6.97,"Cc1nn(Cc2ccc(C#N)nc2)c(C)c1NC(=O)c1cc(C(F)(F)F)nc2cc(F)c(F)cc12 [Example 183, N-{1-[(6-cyanopyridin-3-yl)methyl]-3,5-dimethyl-1H-pyrazol-4-yl}-6,7-difluoro-2-(trifluoromethyl)quinoline-4-carboxamide]"
14,6.96,"Cc1nn(Cc2ccc(F)cc2)c(C)c1NC(=O)c1ccnc2ccc(Br)cc12 [Example 184, 6-bromo-N-[1-(4-fluorobenzyl)-3,5-dimethyl-1H-pyrazol-4-yl]quinoline-4-carboxamide]"
15,6.91,"Cc1cc(C(=O)Nc2c(C)nn(Cc3ccc(F)c(F)c3)c2C)c2cc(Br)ccc2n1 [Example 185, 6-bromo-N-[1-(3,4-difluorobenzyl)-3,5-dimethyl-1H-pyrazol-4-yl]-2-methylquinoline-4-carboxamide]"
16,6.90,"Cc1ccc2nc(C)cc(C(=O)Nc3c(C)nn(Cc4ccc(F)c(Cl)c4)c3C)c2c1 [Example 186, N-[1-(3-chloro-4-fluorobenzyl)-3,5-dimethyl-1H-pyrazol-4-yl]-2,6-dimethylquinoline-4-carboxamide]"
17,6.88,"Cc1nn(Cc2ccn(C)n2)c(C)c1NC(=O)c1cc(C(F)(F)F)nc2ccc(Br)cc12 [Example 187, 6-bromo-N-{3,5-dimethyl-1-[(1-methyl-1H-pyrazol-3-yl)methyl]-1H-pyrazol-4-yl}-2-(trifluoromethyl)quinoline-4-carboxamide]"
18,6.79,"Cc1ccc2nc(C)cc(C(=O)Nc3c(C(F)(F)F)nn(Cc4ccc(C#N)cc4)c3C)c2c1 [Example 188, N-[1-(4-cyanobenzyl)-5-methyl-3-(trifluoromethyl)-1H-pyrazol-4-yl]-2,6-dimethylquinoline-4-carboxamide]"

# Second part, the compound before the results:
row,SMILES,pIC50
1,"Cc1nn(Cc2ccc(CC(=O)NCCO)cc2)c(C)c1NC(=O)c1cc(C(F)(F)F)nc2ccc(Br)cc12 [Example 159, 6-bromo-N-[1-(4-{2-[(2-hydroxyethyl)amino]-2-oxoethyl}benzyl)-3,5-dimethyl-1H-pyrazol-4-yl]-2-(trifluoromethyl)quinoline-4-carboxamide]",6.06
2,"Cc1nn(Cc2ccncc2)c(C)c1NC(=O)c1cc(C(F)(F)F)nc2ccc(Br)cc12 [Example 160, 6-bromo-N-[3,5-dimethyl-1-(pyridin-4-ylmethyl)-1H-pyrazol-4-yl]-2-(trifluoromethyl)quinoline-4-carboxamide]",7.84
3,"Cc1c(NC(=O)c2cc(C(F)(F)F)nc3ccc(Br)cc23)c(C(F)(F)F)nn1Cc1ccc(C#N)cc1 [Example 161, 6-bromo-N-[1-(4-cyanobenzyl)-5-methyl-3-(trifluoromethyl)-1H-pyrazol-4-yl]-2-(trifluoromethyl)quinoline-4-carboxamide]",7.82
4,"Cc1nn(Cc2ccc(F)c(F)c2)c(C)c1NC(=O)c1cc(C2CC2)nc2ccc(F)cc12 [Example 162, 2-cyclopropyl-N-[1-(3,4-difluorobenzyl)-3,5-dimethyl-1H-pyrazol-4-yl]-6-fluoroquinoline-4-carboxamide]",7.61
5,"Cc1nn(Cc2ccc(F)cc2)c(C)c1NC(=O)c1cc(N(C)C)nc2ccccc12 [Example 163, 2-(dimethylamino)-N-[1-(4-fluorobenzyl)-3,5-dimethyl-1H-pyrazol-4-yl]quinoline-4-carboxamide]",7.60
6,"Cc1nn(Cc2ccc(O)cc2)c(C)c1NC(=O)c1cc(C(F)(F)F)nc2ccc(Br)cc12 [Example 164, 6-bromo-N-[1-(4-hydroxybenzyl)-3,5-dimethyl-1H-pyrazol-4-yl]-2-(trifluoromethyl)quinoline-4-carboxamide]",7.57
7,"Cc1nn(Cc2ccc(F)c(F)c2)c(C)c1NC(=O)c1cc(C(F)(F)F)nc2ccc(Cl)cc12 [Example 165, 6-chloro-N-[1-(3,4-difluorobenzyl)-3,5-dimethyl-1H-pyrazol-4-yl]-2-(trifluoromethyl)quinoline-4-carboxamide]",7.52
8,"Cc1nn(Cc2ccc(F)cc2)c(C)c1NC(=O)c1cc(C(F)(F)F)nc2ccc(-c3ccccc3)cc12 [Example 166, N-[1-(4-fluorobenzyl)-3,5-dimethyl-1H-pyrazol-4-yl]-6-phenyl-2-(trifluoromethyl)quinoline-4-carboxamide]",7.39
9,"Cc1c(NC(=O)c2cc(C(F)(F)F)nc3c(Cl)cc(Cl)cc23)c(C(F)(F)F)nn1Cc1ccc(C#N)cc1 [Example 167, 6,8-dichloro-N-[1-(4-cyanobenzyl)-5-methyl-3-(trifluoromethyl)-1H-pyrazol-4-yl]-2-(trifluoromethyl)quinoline-4-carboxamide]",7.34
10,"Cc1nn(Cc2ccc(F)c(F)c2)c(C)c1NC(=O)c1cc(C(F)(F)F)nc2cc(F)ccc12 [Example 168, N-[1-(3,4-difluorobenzyl)-3,5-dimethyl-1H-pyrazol-4-yl]-7-fluoro-2-(trifluoromethyl)quinoline-4-carboxamide]",7.32
11,"Cc1nn(Cc2ccc(C#N)cc2)c(C)c1NC(=O)c1cc(C(F)(F)F)nc2cc(F)c(F)cc12 [Example 169, N-[1-(4-cyanobenzyl)-3,5-dimethyl-1H-pyrazol-4-yl]-6,7-difluoro-2-(trifluoromethyl)quinoline-4-carboxamide]",7.30
